# Results taken from patent US20230341377A1, “DISCONNECTION AGENTS” (DC Europa Limited, priority 2020, published 2023).
# Legend:
# PKCε = molecular target: T1, PKCε (Homo sapiens, UniProt Q02156); set-up: key: +—activation; ++—strong activation; settings: nPKCs, gene PRKCE; cited from earlier work
# T1 sequence (Q02156 1-737): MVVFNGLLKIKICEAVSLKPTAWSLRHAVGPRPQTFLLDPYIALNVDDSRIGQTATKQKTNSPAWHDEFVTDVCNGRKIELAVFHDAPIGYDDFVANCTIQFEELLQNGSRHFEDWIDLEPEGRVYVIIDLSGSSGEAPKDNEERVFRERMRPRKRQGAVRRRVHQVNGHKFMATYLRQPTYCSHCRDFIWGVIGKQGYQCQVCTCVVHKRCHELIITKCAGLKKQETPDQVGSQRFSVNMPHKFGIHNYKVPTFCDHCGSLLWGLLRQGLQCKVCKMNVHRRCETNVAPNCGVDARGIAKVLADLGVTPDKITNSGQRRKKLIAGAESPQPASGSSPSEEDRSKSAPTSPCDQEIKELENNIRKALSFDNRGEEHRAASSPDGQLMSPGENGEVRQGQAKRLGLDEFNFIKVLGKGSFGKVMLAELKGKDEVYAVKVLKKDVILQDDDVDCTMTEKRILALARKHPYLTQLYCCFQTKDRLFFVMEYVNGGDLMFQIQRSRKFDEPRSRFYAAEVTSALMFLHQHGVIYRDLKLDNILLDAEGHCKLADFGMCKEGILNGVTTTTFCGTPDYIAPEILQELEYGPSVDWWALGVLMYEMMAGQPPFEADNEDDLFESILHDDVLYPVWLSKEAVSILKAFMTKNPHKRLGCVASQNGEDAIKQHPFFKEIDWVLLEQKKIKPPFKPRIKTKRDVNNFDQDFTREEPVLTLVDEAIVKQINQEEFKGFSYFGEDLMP
# PKCδ = PKCδ (Homo sapiens, UniProt Q05655); set-up: key: +—activation; ++—strong activation; settings: nPKCs, gene PRKCD; cited from earlier work
# [1] = system: Hs578 cell line for human breast cancer, U373 cell line of human glioblastoma, and HepG2 hepatocellular carcinoma cells; assay: SMS assay (small molecule sharing), cell dye-sharing between cancer cells, cell lines pooled; format: cell-based; settings: various doses that are not cytotoxic, in one or more cell lines
# From the text: The SMS assay was developed to assess the transfer of cell dye (for example the acetoxymethyl [AM]-based Calcein AM), between cancer cells. The SMS assay can be applied to any cell lines forming tumour networks such as tumour microtubes (TM) or tunneling nanotubes (TNT), which enable the transfer of molecules across cells. The SMS assay can be used to assess networking capabilities of any cancer cell lines including HepG2 hepatocellular carcinoma cells, Hs578T cell line for human breast cancer, and U373 cell line for human glioblastoma.
# The SMS assay is illustrated in FIG. 1. For the SMS assay, two sets of cells are stained with the cell dye of choice and a customary cell tracker dye (for example cell tracker blue) using established staining techniques (steps 1 and 2). Each set of cells are then co-incubated with the compound of interest to assess its capabilities to modulate the cells small molecule sharing characteristics (step 3). Then the two sets of cells are combined on a plate, for example at a ratio of 1:1, and cultured in the presence of the compound of interest (Step 4).
# Finally, live cells are evaluated for viability and analyzed by flow cytometry for the uptake of cell dye in the […] cells (Step 5). The comparison of cell tracker uptake against positive and negative control enables the assessment of the compound's ability to modulate the tumour networks including those formed by TM and TNTs
# The SMS assay has been applied to assess the modulation of network sharing capabilities of Protein Kinase C Modulators (PKCm) at various concentrations in the Hs578 cell line for human breast cancer, U373 cell line of human glioblastoma, and HepG2 hepatocellular carcinoma cells. PBS vehicle was used as negative control and the PKCm PHORBOL 12-MYRISTATE 13-ACETATE (PMA) at a concentration of 5 nM was used as the positive control.
# FIG. 2A and FIG. 2B show the percentage of cell tracker cells that were accepting the cell dye transfer from separately stained donor cells according to the SMS assay of Example. The percentage of acceptor cells detected is shown in comparison to vehicle (upper horizontal line) and PMA at 5-10 nM concentration (lower horizontal line). Active PKCm in the SMS assay (FIG. 2A) show a decrease in acceptor cells relative to vehicle at certain concentration. […] The upper limit of the tested concentrations was determined as the maximal non-cytotoxic dose.
# PKCα = PKCα (Homo sapiens, UniProt P17252); set-up: key: +—activation; ++—strong activation; settings: cPKCs, gene PRKCA; cited from earlier work
# [2] = system: patient-derived glioblastoma cells from the Glio10535 model; assay: Example 5: subcutaneous Glio10535 glioblastoma, TPPB with temozolomide, relative tumour volume; format: in vivo, NMRI nude mice
# Experimental: NMRI nude mice were subcutaneously implanted with patient-derived glioblastoma cells from the Glio10535 model (Orthmann et al.) on day 0.
# Animals were stratified into the treatment groups on day 6 after tumour implantation to achieve similar average tumour volumes per group. Minimal tumour sizes were 44 mm^3 and maximal tumour sizes were 247 mm^3. Vehicle animals (n=9) were treated with a mix of DMSO, Tween20 and PBS. Each 5 animals were orally dosed with temozolomide chemotherapy at 25 mg/kg (TMZ 25) and at 50 mg/kg (TMZ 50) on consecutive days per week. Each week represents one chemotherapy cycle of 5 treatment days and 2 off-treatment days. TPPB was dosed intraperitoneally in combination with 25 mg/kg oral temozolomide either continuously at 0.2 mg/kg (n=10) or intermittently (n=10) at 0.1, 0.4, and 0.7 mg/kg starting with the last dose of every TMZ 25 cycle and ending the day before the next treatment cycle. Before the start of chemotherapy, TPPB was titrated to its target dose.
# [3] = system: human patient-derived S24 glioblastoma cells; assay: Example 6: orthotopic S24 glioblastoma, TPPB followed by radiotherapy, intravital microscopy; format: in vivo, NMRI mice
# Experimental: Orthotopic brain tumours were induced in NMRI mice using human patient-derived S24 glioblastoma cells exactly as described in Example 4. Once significant tumours were established in vivo (approximately 35 days after implantation), as shown by intravital microscopy exactly as described in Example 4, mice received 4 intraperitoneal injections on day -1, day 6 and day 13 and day 20, with Control mice receiving vehicle only and Treated mice receiving TPPB at 200 μg/kg. All mice then received radiotherapy on days 0, 1 and 2 exactly as described in Example 4, except that the radiation dose was 6 Gy as opposed to 7 Gy on each occasion (18 Gy total radiation dose as opposed to 21 Gy total radiation dose). The impact of treatment on the tumour was then monitored by intravital microscopy at intervals after the initiation of radiotherapy on day 0.
# [4] = intermittent TPPB 0.7 2× per week i.p. + TMZ 25 mg/kg oral, by 38
# [5] = TPPB 200 μg/kg i.p. followed by radiotherapy, all mice
# Sequence of PKCδ (Q05655 whole entry): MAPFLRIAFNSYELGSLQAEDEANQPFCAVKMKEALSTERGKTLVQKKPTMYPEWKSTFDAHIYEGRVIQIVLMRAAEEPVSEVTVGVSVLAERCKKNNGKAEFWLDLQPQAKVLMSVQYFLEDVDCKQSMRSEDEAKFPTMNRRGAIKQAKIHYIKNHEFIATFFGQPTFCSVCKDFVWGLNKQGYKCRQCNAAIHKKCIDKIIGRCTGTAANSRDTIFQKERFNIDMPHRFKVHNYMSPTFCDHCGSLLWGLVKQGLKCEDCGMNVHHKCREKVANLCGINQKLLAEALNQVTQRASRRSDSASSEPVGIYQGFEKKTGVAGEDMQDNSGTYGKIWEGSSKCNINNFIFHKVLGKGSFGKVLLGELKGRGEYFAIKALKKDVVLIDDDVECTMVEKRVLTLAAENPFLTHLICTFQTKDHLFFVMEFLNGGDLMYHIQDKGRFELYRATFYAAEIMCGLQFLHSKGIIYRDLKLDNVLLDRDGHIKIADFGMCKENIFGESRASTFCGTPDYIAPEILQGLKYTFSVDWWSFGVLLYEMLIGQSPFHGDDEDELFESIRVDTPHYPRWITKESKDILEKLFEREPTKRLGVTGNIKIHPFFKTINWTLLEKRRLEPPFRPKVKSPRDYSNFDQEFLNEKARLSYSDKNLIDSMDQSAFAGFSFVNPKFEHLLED
structure (smiles),measurement,setting,value
"CC(C)[C@H]1C(=O)N[C@H](CO)Cc2cc(NC(=O)/C=C/C=C/c3ccc(C(F)(F)F)cc3)ccc2N1C [TPPB, (2E,4E)-N-[(2S,5S)-1,2,3,4,5,6-Hexahydro-5-(hydroxymethyl)-1-methyl-2-(1-methylethyl)-3-oxo-1,4-benzodiazocin-8-yl]-5-[4-(trifluoromethyl)phenyl]-2,4-pentadienamide]",activation of PKCε,PKCε,+
same,activation of PKCδ,PKCδ,+
same,inhibition of cell dye-sharing in the SMS assay,[1],marked inhibition of cell dye-sharing
same,activation of PKCα,PKCα,++
same,effect over control,[2]; continuous dosing with TPPB (0.2 mg/kg QD i.p. + TMZ 25),no effect over control
same,anti-tumour effect (relative tumour volume) compared with TMZ 25 monotherapy,[2]; [4],additive to the effect of temozolomide 25 mg/kg monotherapy
same,anti-tumour effect (relative tumour volume) compared with continuous TPPB 0.2 QD + TMZ 25,[2]; [4],superior to continuous treatment with TPPB
same,tumour growth,[2]; intermittent dosing with TPPB (+ TMZ 25),tumour growth inhibition
same,tumour cell morphology,"[3]; TPPB 200 μg/kg i.p. + radiotherapy, from day 35 after initiation of radiotherapy",marked change in morphology
same,outcome of orthotopic solid brain tumour,"[3]; TPPB 200 μg/kg i.p. day -1, 6, 13, 20, radiotherapy 6 Gy days 0, 1, 2, by day 91",complete cure
same,tumour cells in field of view,"[3]; TPPB 200 μg/kg i.p. day -1, 6, 13, 20, radiotherapy 6 Gy days 0, 1, 2, day 91",no detectable tumour cells
same,behavioural or clinical signs associated with the treatment,[3]; [5],no behavioural or clinical signs
same,tolerability,[3]; [5],well tolerated
